From patent US12622891B2, “AMP-activated protein kinase activator” (KYOTO PHARMACEUTICAL UNIVERSITY, priority 2021, dated 2026) come the findings set out here.

Series [1] relates to human colon cancer SW48 cells. Kind of series: Proliferation suppressive action on human colon cancer SW48 cells (Trypan blue viable cell count). The series is classed as cell-based. Conditions: 500 nM, 3 days; FIG. 4. How it is done:
Human colon cancer SW48 cells were cultured in a 5% CO2 incubator at 37° C. using DMEM (FUJIFILM Wako Pure Chemical Corporation, Japan) supplemented with 10% bovine fetal serum (FBS, HyClone, GE Healthcare Life Sciences, Buckinghamshire, England) and 1% penicillin/streptomycin (FUJIFILM Wako Pure Chemical Corporation, respectively 100 units/mL, 100 μg/mL). SW48 cells were suspended in trypsin (Lonza, Walkersville, MD, USA), and 1×10^5 cells were seeded in a 6-well dish (TPP, Trasadingen, Switzerland). After 24 hr, a group of the compounds of the present invention (compound (I-4), compound (I-5), and compound (I-10)) diluted with a culture medium to a final concentration of 500 nM was allowed to act for 3 days. Proliferation of these cells was evaluated using Trypan blue (FUJIFILM Wako Pure Chemical Corporation, Japan) staining method and counting the number of viable cells using a Countess II automatic cell counter (Thermo Fisher Scientific, Waltham, MA).

Series [2] deals with phosphorylated AMPK. Kind of series: Phosphorylated AMPK increasing action on human colon cancer SW48 cells (Western blot, phospho-AMPKα Thr172). The series is classed as cell-based. Conditions: 100 nM, 2 days; FIG. 6. As for the experimental part:
Human colon cancer SW48 cells were cultured in a 5% CO2 incubator at 37° C. using DMEM (FUJIFILM Wako Pure Chemical Corporation, Japan) supplemented with 10% bovine fetal serum (FBS, HyClone, GE Healthcare Life Sciences, Buckinghamshire, England) and 1% penicillin/streptomycin (FUJIFILM Wako Pure Chemical Corporation, respectively 100 units/mL, 100 μg/mL). SW48 cells were suspended in trypsin (Lonza, Walkersville, MD, USA), and 1×10^5 cells were seeded in a 6-well dish (TPP, Trasadingen, Switzerland). After 24 hr, the cells were treated with the compounds of the present invention (compound (I-4), compound (I-5), and compound (I-10)) diluted with a culture medium to a final concentration of 100 nM and allowed to act for 2 days. Cellular proteins were dissolved in 1% SDS buffer supplemented with a protease inhibitor cocktail mix (Nacalai Tesque, Kyoto, Japan), and SDS-PAGE was performed. After transferring to PVDF membrane (Millipore, Billerica, MA, USA), Western blot analysis was performed using anti-phospho-AMPKα (Thr172, 1:1000, #2535; CST) antibody. GAPDH protein was analyzed as a loading control.
In general terms: A western blot detects proteins with antibodies after separation by electrophoresis.

The test system of series [3] is human glioblastoma cell line U251. The series can be described thus: Proliferation of human glioblastoma U251 cells, compound alone or combined with temozolomide (viable cell count, CI/isobologram). The series is classed as cell-based. To be noted: temozolomide 12.5, 25, 50 μM with compound 25, 50, 100 nM, 6 days; CI < 0.9 = synergistic; FIG. 2. How it is done: According to the method described in a literature (Matsumura K, et al. BMC Cancer (2016) 16(1):748.), human glioblastoma cell line U251 was cultured in a 5% CO2 incubator at 37° C. using DMEM (FUJIFILM Wako Pure Chemical Corporation, Japan) supplemented with 10% bovine fetal serum (FBS, HyClone, GE Healthcare Life Sciences, Buckinghamshire, England) and 1% penicillin/streptomycin (FUJIFILM Wako Pure Chemical Corporation, respectively 100 units/mL, 100 μg/mL). Temozolomide (Sigma Chemical, St. Louis, MO, USA) which is used as a standard drug for the treatment of glioblastoma was dissolved at 200 mM using dimethyl sulfoxide (Nacalai Tesque, Kyoto, Japan) as a solvent. […] Proliferation of these cells was evaluated using Trypan blue (FUJIFILM Wako Pure Chemical Corporation, Japan) staining method and counting the number of viable cells using a Countess II automatic cell counter (Thermo Fisher Scientific, Waltham, MA). Combination index (CI) values of temozolomide and the compound of the present invention were calculated using CalcuSyn 2.11 software (Biosoft, Cambridge, UK), and Isobologram analysis was performed. The CI value of less than 0.9 was determined to be a synergistic effect, the CI value of 0.9 or more and less than 1.1 was determined to be an additive effect, and the CI value of 1.1 or more was determined to be an antagonistic effect.

Series [4] concerns glioblastoma transplanted tumor. Kind of series: In vivo antitumor effect in a mouse glioblastoma transplantation model (luciferase imaging). Conditions: C57BL6J mouse, 10 mg/kg intraperitoneally three times a week, three weeks after transplantation; FIG. 3. As for the experimental part: According to the method described in a literature (Tanigawa S, et al. Cancer Gene Therapy (2021). https://doi.org/10.1038/s41417-020-00282-5), murine glioblastoma stem cells introduced with the Luciferase gene were established, and cultured as neurosphere cells in a 5% CO2 incubator at 37° C. using Neurobasal medium supplemented with B27 and N2 supplements (Gibco/Thermo Fisher Scientific, Waltham, MA, USA) and 10 ng/mL of EGF and bFGF (R&D Systems, Minneapolis, MN, USA). The neurospheres were made into a single cell suspension by Accutase (Innovative Cell Technologies, San Diego, CA, USA) treatment, and 1×10^3 cells suspended in 2 μL of PBS were transplanted into the cerebrum of a 6-week-old male C57BL6J mouse (Oriental Bioservice, Kyoto, Japan) fixed on a Stereotaxic Instrument (51730D; Stoelting Co., Wood Dale, IL, USA) using a 30-gauge Hamilton syringe with autoinjector (Legato130; KD Scientific, Holliston, MA, USA). […] Three weeks after cell transplantation, D-luciferin was administered intraperitoneally at a dose of 150 mg/kg and in vivo tumor size was evaluated using the IVIS Lumina XR imaging system (Summit Pharmaceuticals International, Tokyo, Japan).

The test system of series [5] is AMP/ATP ratio of human colon cancer SW48 cells. Kind of series: AMP/ATP ratio increasing action on human colon cancer SW48 cells (AMP Glo / Cell Titer Glo). It is filed as cell-based. To be noted: 500 nM and 1 μM, 2 days; FIG. 5. As for the experimental part: Human colon cancer SW48 cells were cultured in a 5% CO2 incubator at 37° C. using DMEM (FUJIFILM Wako Pure Chemical Corporation, Japan) supplemented with 10% bovine fetal serum (FBS, HyClone, GE Healthcare Life Sciences, Buckinghamshire, England) and 1% penicillin/streptomycin (FUJIFILM Wako Pure Chemical Corporation, respectively 100 units/mL, 100 μg/mL). SW48 cells were suspended in trypsin (Lonza, Walkersville, MD, USA), and 1×10^5 cells were seeded in a 6-well dish (TPP, Trasadingen, Switzerland). After 24 hr, the cells were treated with the compound of the present invention (compound (I-5)) diluted with a culture medium to final concentrations of 500 nM and 1 μM and allowed to act for 2 days. Intracellular AMP was measured with the AMP Glo assay kit (Promega, Madison, WI, USA), and intracellular ATP was measured with the Cell Titer Glo Luminescent Cell Viability Assay Kit (Promega, Madison, WI, USA) using a SYNERGY HT (BioTek Instruments, Inc. Winooski, VT, USA), and the AMP/ATP ratio was calculated.

Series [6] has as its system human colon cancer SW48 transplanted tumors. Kind of series: In vivo antitumor effect in a human colon cancer SW48 cell subcutaneous transplantation model. Further details: species or system mouse. To be noted: CB17 SCID mice, 20 mg/kg intraperitoneally every day from 4 days after transplantation, 3.5 weeks; FIG. 7(A),(B). As for the experimental part:
(§1) According to the method described in a literature (Ii H, et al. ChemMedChem. (2018) 13(2):155-163), human colon cancer SW48 cells were cultured in a 5% CO2 incubator at 37° C. using DMEM (FUJIFILM Wako Pure Chemical Corporation, Japan) supplemented with 10% bovine fetal serum (FBS, HyClone, GE Healthcare Life Sciences, Buckinghamshire, England) and 1% penicillin/streptomycin (FUJIFILM Wako Pure Chemical Corporation, respectively 100 units/mL, 100 μg/mL). SW48 cells were suspended in trypsin (Lonza, Walkersville, MD, USA), and 3×10^6 cells were suspended in 100 μL of PBS/Matrigel (1:1, Corning, Corning, NY, USA), and subcutaneously injected into 6-week-old male or female CB17 SCID mice (Japan Clea, Osaka, Japan) to create a subcutaneous transplantation tumor model. The compound of the present invention was dissolved in 10% ethanol (FUJIFILM Wako Pure Chemical Corporation, Japan), 10% dimethyl sulfoxide (Nacalai Tesque, Kyoto, Japan), 10% Cremophor EL (Sigma Chemical, St. Louis, MO, USA), and 70% saline (Nacalai Tesque, Kyoto, Japan), and administered intraperitoneally at a dose of 20 mg/kg every day from 4 days after transplantation. The major diameter and minor diameter were measured twice a week using calipers, and the tumor volume was calculated by 0.5× major diameter×minor diameter^2. 3.5 Weeks after cell transplantation, the tumor was removed and the weight was measured. […]

The nature of series [7]: Body weight change on daily intraperitoneal administration in the SW48 transplantation model. The series is classed as in vivo, mouse. Conditions: CB17 SCID mice, 20 mg/kg daily intraperitoneally for 3.5 weeks; FIG. 7(C). How it is done: as §1
The subject of series [8] is phosphorylated AMPK. Kind of series: Phosphorylated AMPK increasing action on human lung cancer A549 cells (Western blot, phospho-AMPKα Thr172). Conditions: 100 nM to 1 μM, 3 days; FIG. 9. It is filed as cell-based. How it is done: Human lung cancer A549 cells were cultured in a 5% CO2 incubator at 37° C. using DMEM (FUJIFILM Wako Pure Chemical Corporation, Japan) supplemented with 10% bovine fetal serum (FBS, HyClone, GE Healthcare Life Sciences, Buckinghamshire, England) and 1% penicillin/streptomycin (FUJIFILM Wako Pure Chemical Corporation, respectively 100 units/mL, 100 μg/mL). A549 cells were suspended in trypsin (Lonza, Walkersville, MD, USA), and 1×10^5 cells were seeded in a 6-well dish (TPP, Trasadingen, Switzerland). After 24 hr, they were treated with the compound of the present invention diluted in a culture medium to final concentrations of 100 nM to 1 μM and allowed to act for 3 days. Cellular proteins were dissolved in 1% SDS buffer supplemented with a protease inhibitor cocktail mix (Nacalai Tesque, Kyoto, Japan), and SDS-PAGE was performed. After transferring to PVDF membrane (Millipore, Billerica, MA, USA), Western blot analysis was performed using anti-phospho-AMPKα (Thr172, 1:1000, #2535; CST) antibody. GAPDH protein was analyzed as a loading control.

Consider `CCCCCCCCCOCCOCCOCCOCCCCCCCCCCCCNC(=O)c1ccsc1` [I-4, N-(13,16,19,22-tetraoxahentriacontan-1-yl)thiophene-3-carboxamide], for which the “proliferation of human colon cancer SW48 cells (number of viable cells)” value (“proliferation … (number of viable cells)” below) in series [1] is recorded as “proliferation suppressive action”. In addition, the “phosphorylated AMPK in SW48 cells” value in the series with phosphorylated AMPK [2] was “phosphorylated AMPK increasing action”.

Take `CCCCCCCCCCOCCOCCOCCOCCCCCCCCCCCCNC(=O)c1ccsc1` [I-5, N-(13,16,19,22-tetraoxadotriacontan-1-yl)thiophene-3-carboxamide]: the “combination effect with temozolomide on proliferation of U251 cells (combination index, isobologram)” value in series [3] is listed as “synergistically potentiates the proliferation suppressive ability of temozolomide”. Also, the “in vivo tumor size of transplanted glioblastoma” value in series [4] was “suppresses proliferation of glioblastoma transplanted tumor”. Further, in series [1], the “proliferation … (number of viable cells)” value is reported as “proliferation suppressive action”. In addition, in series [5], the “AMP/ATP ratio of SW48 cells” value was “has action to increase the AMP/ATP ratio”. The “phosphorylated AMPK in SW48 cells” value in the series on phosphorylated AMPK [2] was “phosphorylated AMPK increasing action”. Moreover, the “tumor volume and tumor mass of SW48 subcutaneous transplanted tumors” value in series [6] is “suppresses proliferation of human colon cancer SW48 transplanted tumors”. Moreover, the body weight change entry in series [7] is “no significant body weight change”.

Take `COCCOCCOCCOCCCCCCCCCCCCNC(=O)c1csc(C)c1` [I-10, N-(13,16,19,22-tetraoxatricosan-1-yl)-5-methylthiophene-3-carboxamide]: in series [1], the “proliferation … (number of viable cells)” value was “proliferation suppressive action”. For the same molecule, in the series on phosphorylated AMPK [2], the “phosphorylated AMPK in SW48 cells” value is listed as “phosphorylated AMPK increasing action”.

`CCCCCCCCCCOCCOCCOCCOCCOCCCCCCCCCNC(=O)c1ccsc1` [I-16, N-(10,13,16,19,22-pentaoxadotriacontan-1-yl)thiophene-3-carboxamide]: the “phosphorylated AMPK in A549 cells” value in the series on phosphorylated AMPK [8] is “phosphorylated AMPK increasing action”.
